Data on 16 molecules can be found in the SangsterLogP compilation.

Molecules are shown by their SMILES.

The term logP denotes the decadic logarithm of the partition coefficient of the neutral form, usually between octanol and water. A high value points to a more lipophilic compound.

One series can be described thus: method code SF-AS, from DOI: 10.1021/jf00090a013.
As to `CCc1ccc(F)c(NC(=O)N(C)C(=O)NC)c1`, the logP is 3.23.
The molecule `CNC(=O)N(C)C(=O)Nc1cc(C(C)C)ccc1F` returned a logP of 3.53.
`CNC(=O)N(C)C(=O)Nc1cc(I)ccc1F` returned a log partition coefficient (logP) of 3.58.
On the same count and under the same terms, to `CNC(=O)N(C)C(=O)Nc1cc(C(=O)OC)ccc1F` belongs 2.28.
On the same count and under the same terms, to `CNC(=O)N(C)C(=O)Nc1cc(OC(C)C)ccc1F` belongs 3.08; to `CNC(=O)N(C)C(=O)Nc1ccccc1F`, 2.12.
The same measure, in the same setting: to `CCC(CC)c1ccc(F)c(NC(=O)N(C)C(=O)NC)c1` belongs 4.46; to `CNC(=O)N(C)C(=O)Nc1cc(C2CCCCC2)ccc1F`, 4.58.
For the molecule `CNC(=O)N(C)C(=O)Nc1cc([N+](=O)[O-])ccc1F`, the logP amounted to 2.3.

Experiment in a further series: not given
As for `CNC(=O)N(C)C(=O)Nc1cc(-c2ccccc2)ccc1F`, the logP is 3.78.
`CNC(=O)N(C)C(=O)Nc1cc(F)ccc1F`: the logP amounted to 2.4.
Take `CNC(=O)N(C)C(=O)Nc1cc(S(=O)(=O)C(C)C)ccc1F`: the logP was 1.87.
On the same count and under the same terms, to `CNC(=O)N(C)C(=O)Nc1cc(Cc2ccccc2)ccc1F` belongs 3.9.
For `CNC(=O)N(C)C(=O)Nc1cc(OC)ccc1F`, the logP was found to be 2.14.
Same read-out and setting: to `CNC(=O)N(C)C(=O)Nc1cc(C(C)=O)ccc1F` belongs 1.82; to `CNC(=O)N(C)C(=O)Nc1cc(C(C)(C)C)ccc1F`, 3.96.
